{"source": "paper PMC9774438", "about": "“Effects of Synthetic Short Cationic Antimicrobial Peptides on the Catalytic Activity of Myeloperoxidase, Reducing Its Oxidative Capacity” (Antioxidants, 2022)", "key": {"myeloperoxidase (MPO) [1]": {"target": "T1, myeloperoxidase (MPO) (Homo sapiens, UniProt P05164)", "T1 construct": "Native myeloperoxidase (MPO) was obtained from human leukocyte extract by successive chromatography on heparin-Sepharose and phenyl-agarose; from tissue; host or cells: human leukocyte extract", "T1 sequence (P05164 279-745 limits assumed)": "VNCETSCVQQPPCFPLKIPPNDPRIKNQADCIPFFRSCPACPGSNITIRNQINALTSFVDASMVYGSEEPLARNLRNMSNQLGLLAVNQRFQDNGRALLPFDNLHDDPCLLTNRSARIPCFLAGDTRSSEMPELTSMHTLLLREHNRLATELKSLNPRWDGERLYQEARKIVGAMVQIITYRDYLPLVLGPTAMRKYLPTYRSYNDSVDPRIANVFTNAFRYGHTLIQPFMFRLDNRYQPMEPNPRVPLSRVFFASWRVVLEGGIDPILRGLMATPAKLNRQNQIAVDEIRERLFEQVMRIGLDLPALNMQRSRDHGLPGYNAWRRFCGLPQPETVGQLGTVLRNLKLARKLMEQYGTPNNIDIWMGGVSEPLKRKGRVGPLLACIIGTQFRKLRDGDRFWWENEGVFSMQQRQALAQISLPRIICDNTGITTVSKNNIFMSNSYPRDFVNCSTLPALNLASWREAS", "T1 sequence (P05164 165-273 limits assumed)": "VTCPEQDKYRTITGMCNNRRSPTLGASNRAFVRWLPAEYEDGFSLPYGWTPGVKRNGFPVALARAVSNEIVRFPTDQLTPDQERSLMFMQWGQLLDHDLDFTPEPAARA", "assay": "MPO heme absorbance spectra (Compound II formation and decay, MPO turnover)", "assay_type": "biochemical", "conditions": "2 μM MPO heme, 100 μM H2O2, 10 mM Na-phosphate pH 7.4; all concentrations", "experimental": "Native myeloperoxidase (MPO) was obtained from human leukocyte extract by successive chromatography on heparin-Sepharose and phenyl-agarose followed by gel-filtration on a Sephacryl S-200 HR, as previously described. The Reinheit Zahl value (A430 nm/A280 nm) for the purified protein was 0.85. The MPO concentration was determined as the heme concentration measured spectrophotometrically at 430 nm with a molar extinction coefficient of 91,000 M^−1 cm^−1 [35].\nSpectra of MPO were recorded on a Cary 50 Bio UV-Vis spectrophotometer (Varian, Mulgrave, Australia). Experiments were performed with Eppendorf UVette plastic UV/Vis cuvettes (Hamburg, Germany). An MPO concentration was 2 μM heme. MPO was mixed with CAMP in 10 mM Na-phosphate buffer (pH 7.4) supplemented with 0.2 mM DTPA. H2O2 was added as a microvolume of concentrated solution (100 μM final).\nTo elucidate the influence of CAMPs on MPO catalytic activity, we analyzed absorbance spectral changes for MPO activated by H2O2 in the presence of peptides. The spectra were obtained with 2 μM MPO heme and 100 μM H2O2 in 10 mM Na-phosphate buffer, pH 7.4. All reactions in these and further experiments were performed in buffers supplemented with 0.2 mM diethylenetriaminepentaacetic acid (DTPA) to sequester free transition metal ions to prevent tyrosine and cysteine autooxidation.\nFigure 2 Time courses of spectral absorbance changes at 430 nm (indicative of MPO ground state) and 455 nm (indicative of Compound II) in the absence and presence of cationic antimicrobial peptides (CAMPs) in the system MPO/H2O2. The name of CAMP is given in parentheses after the panel designation (A–D). H2O2 (100 µM) was added to MPO (2 µM heme) or MPO preincubated with peptides at different peptide/heme molar ratios for 5 min in 10 mM Na-phosphate buffer, pH 7.4. Spectra were taken before and 0.25 min, 5 min, 10 min, and so on after adding H2O2. The initial absorbance values (before H2O2 addition) are shown as a red square marker. […]"}, "myeloperoxidase (MPO) [2]": {"target": "T1, myeloperoxidase (MPO)", "assay": "MPO peroxidase activity (Amplex Red assay)", "assay_type": "biochemical", "conditions": "0.8–50 μM peptide, 8 nM MPO heme, 50 μM Amplex Red, 25 μM H2O2, 50 mM K-phosphate pH 7.4", "experimental": "MPO peroxidase activity was evaluated fluorometrically using Amplex Red^TM reagent which was oxidized by MPO to the fluorescent resorufin (λex = 530 nm, λem = 590 nm). The assay was performed in 96-plate format. The final reaction mixture in 50 mM K-phosphate buffer (pH 7.4) was as follows: MPO, 8 nM heme; peptide, […]; H2O2, 25 μM; Amplex Red reagent, 50 μM. MPO was preincubated with peptides for 5 min in a volume of 100 μl. Then, Amplex Red was added, and the enzymatic reaction was initiated by adding H2O2 (a final probe volume of 200 μL per well). The fluorescence measurement was made with a CLARIOstar multimodal plate reader (BMG Labtech, Ortenberg, Germany) at 5 min after the beginning of the reaction. To determine the type of CAMP-induced inhibition, KM and Vmax were obtained by varying substrates of MPO: Amplex Red in a final concentration from 1 to 62.5 μM, or H2O2 in a final concentration from 0.625 to 20 μM.\n(§1) The Hannes-Wolf plots were made as ([Substrate]/V = f([Substrate]). KM was equal in magnitude to the intercept made on the abscissa axis by the approximating straight line; Vmax was calculated as a reciprocal value of the straight-line slope. The inhibition constant (Ki) for noncompetitive inhibition was calculated as follows: Ki = [I]/((Vmax − Vmax’)/Vmax’); Ki for competitive inhibition was calculated as follows: Ki = [I]/((KM’ − KM)/KM); Ki for mixed inhibition was calculated as follows: Ki = [I]/(((KM’ − KM)/KM)^2 + ((Vmax − Vmax’)/Vmax’))^2)^0.5; and Ki for uncompetitive inhibition was calculated as follows: Ki = [I]/(((KM − KM’)/KM’)^2 + ((Vmax – Vmax’)/Vmax’))^2)^0.5, where [I]—concentration of inhibitor (CAMP), KM—Michaelis constant without inhibitor, Vmax—maximal rate without inhibitor, KM’—Michaelis constant in the presence of inhibitor, Vmax’—maximal rate in the presence of inhibitor.\nFrom the experiments with varying concentrations of H2O2 (0.01–200 μM) and Amplex Red (6.25–100 μM), the optimal concentrations of 25 μM H2O2 and 50 μM Amplex Red were chosen for further work. The 0.8–50 μM concentration range (corresponding to 100–6250 peptide molecules per heme) was used to determine the concentration dependence of the effect of CAMPs on peroxidase activity of MPO."}, "myeloperoxidase (MPO) [3]": {"target": "T1, myeloperoxidase (MPO)", "assay": "MPO chlorinating activity (Celestine Blue B assay)", "assay_type": "biochemical", "conditions": "0.008–8 μM peptide, 0.8 nM MPO heme, 200 μM CB, 150 mM NaCl, 50 μM H2O2, 50 mM Na-acetate pH 5.5", "experimental": "MPO chlorinating activity was evaluated fluorometrically using Celestine Blue B (CB) which was oxidized to fluorescent glycol (λex = 487 nm, λem = 578 nm) by taurine N-chloramine produced in the reaction of taurine with HOCl generated by MPO [39]. The assay was performed in 96-plate format. MPO was preincubated with peptides for 5 min in a volume of 100 μL, with the concentrations being: MPO, 1.6 nM heme and peptide, 16 nM–16 μM. Then, 100 μL aliquots of CB-containing mix (CB, 400 µM; H2O2, 100 µM; taurine, 4 mM; KI, 10 µM; NaCl, 300 mM; 50 mM Na-acetate buffer, pH 5.5) were added to MPO/peptide and to 100 μL of HOCl standards (0–150 μM). The fluorescence measurement was made with a CLARIOstar multimodal plate reader (BMG Labtech, Ortenberg, Germany) at 15 min after the reaction started. Fluorescence intensity detected for HOCl standards of HOCl was used for calculating the chlorinating activity as mole of HOCl per mole of MPO heme per second. To determine the type of CAMP-induced inhibition, KM and Vmax were obtained by varying substrates of MPO: NaCl in a final concentration from 25 to 300 mM, or H2O2 in a final concentration from 5 to 80 µM.\nas §1\nChlorinating activity is a distinctive feature of MPO as compared with other peroxidases and it is an important property, enabling MPO to combat microbes. We tested whether the inhibitory effects of pept_1545 and Hm-AMP8 on peroxidase activity extend to MPO chlorinating activity. Chlorinating activity was measured using a fluorometric CB-based assay. To determine the concentration dependence of the effect of CAMPs on MPO chlorinating activity, the 0.008–8 μM concentration range (corresponding to 10–10,000 peptide molecules per heme) was used."}, "MPO": {"tested_on": "MPO", "conditions": "ref [31]; cited from earlier work", "source_text": "The positively charged character of arginine played a key role, since substitu ..."}, "MPO active site": {"tested_on": "MPO active site", "conditions": "computational docking; ref [31]; cited from earlier work", "source_text": "To react with MPO, a peptide residue has to closely approach to the active site. The active site heme group of MPO is located in a crevice (~15 Å in depth) with a channel (~10 Å in diameter) which opens into the distal cavity. Only H2O2 and small anions have ready access to the iron atom. Other compounds that are oxidized by MPO via the peroxidase cycle bind in the binding site at the entrance to the distal cavity. […] Despite concerns rais ..."}, "erythrocytes": {"tested_on": "erythrocytes", "conditions": "PBS, 1 h, 37 °C, Triton X-100 = 100%", "method": "Comparative evaluation of hemolytic activity of the cationic antimicrobial peptides (CAMPs) Hm-\nAMP8, pept_1545, Hm-AMP1, and Hm-AMP2 using a hemolysis assay measuring hemoglobin released from\ndamaged cells. In each group of bars, the final peptide concentration from left to right is 12.5 μM, 25 μM, 50\nμM, and 100 μM. For melittin, the left bar – 0.5 μM, and the right bar – 1 μM. A working erythrocyte suspension\n(in PBS) was prepared so that its ten -fold dilution gave an optical density of 0.4 at 800 nm (about 30 × 10^6 cells/mL).\nErythrocytes (125 μL) were added to the same volume of PBS containing the peptide. Cells with PBS served as\nnegative control; cells with Triton X-100 served as positive control wh ich was set to 100%. After 1-h incubation\n(with slight shaking) at 37 °C, the samples were centrifuged at 1000 × g for 10 min , the supernatant was\ntransferred to the wells of a microplate, and the absorbance of hemoglobin was measured by a Multiskan Ascent\nplate reader (Thermo Electron Corporation, Vantaa, Finland), with a test wavelength of 414 nm and a\nbackground wavelength of 690 nm. The hemolysis percentage was calculated using the following equation:\nHemolysis (%) = {(sample absorbance – negative control) / (positive control – negative control)} × 100. Data\nshown are mean ± SD from three independent experiments using blood from three healthy volunteers, with […]"}}, "note": "Entries after “also recorded” stand apart in the source; their conditions may differ. Like-named read-outs stand apart in the source and are kept apart here."}
{"substance": "RLKRFKRVALRREKTARNFRSIVS [Hm-AMP1]", "values": [{"measurement": "effect on H2O2-induced formation and decay of MPO Compound II / MPO turnover (summary)", "setting": "myeloperoxidase (MPO) [1]", "value": "no significant effect on MPO cycling"}, {"measurement": "effect on MPO peroxidase activity", "setting": "myeloperoxidase (MPO) [2]", "value": "no inhibition; also recorded: No effect"}, {"measurement": "effect on MPO chlorinating activity", "setting": "myeloperoxidase (MPO) [3]", "value": "no significant effect"}]}
{"substance": "GRRRRSVQWCA [antimicrobial peptide …, human lactoferrin-derived]", "values": [{"measurement": "inhibition of MPO", "setting": "MPO", "value": "inhibiting MPO activity"}, {"measurement": "binding to MPO active site (docking)", "setting": "MPO active site", "value": "binding of the peptide GRRRRSVQWCA to the edge of and within the cleft of the active site"}]}
{"substance": "melittin", "values": [{"measurement": "Hemolysis", "setting": "erythrocytes; 0.5 M (so in the source), three independent experiments", "value": "about 40%"}, {"measurement": "Hemolysis", "setting": "erythrocytes; 1 M (so in the source)", "value": "complete hemolysis"}]}
